Reference: US6461997B1, “Triazole sulfones having herbicidal activity” (Monsanto Technology LLC, priority 1999, dated 2002)

These molecules were tested on STEME (common chickweed) (assay: Pre-emergence herbicidal activity, cool season). Conditions: lowest tested rate with 80% or greater inhibition; rates 300, 100, 30, 10 g/ha; about 14 days.
Type: in vivo, Stellaria media
Outline: (§1)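 Seeds sown in sterilised fertilised topsoil received surface-applied compound in 50:50 acetone/water, typically at 300, 100, 30 and 10 g/ha, then greenhouse-grown at 30/21° C (warm-season species) or 18/13° C (cool-season species). Percent inhibition versus untreated plants was scored at about 14 days, giving GR80; an asterisk marks activity short of 80% at the top rate.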
With `CCN(CC)C(=O)n1cnc(S(=O)(=O)C(F)(F)C(F)F)n1` [Example 16] the “Pre-emergence activity GR80, STEME” value was 300 g/ha.
`CCN(CC)C(=O)n1cnc(S(=O)(=O)C(F)(F)C(F)(F)SC)n1` [Example 14] was tested, and the “Pre-emergence activity GR80, STEME” value was 300 g/ha.

Each molecule was assayed on DATST (jimsonweed) (assay: Pre-plant incorporated (PPI) herbicidal activity, warm season). Conditions: Datura stramonium; PPI application, 10 g/ha; read-out: Percent inhibition DATST.
Type: in vivo, Datura stramonium
Protocol: In another set of tests, the pre-plant incorporated (PPI) activity of compounds of this invention was evaluated on the same species as for the pre-emergence tests described above. In the PPI tests the following procedure, designed to simulate PPI application, was used.
(§2) A pre-prepared topsoil mixture (described above) was placed in a pot and compacted to a depth of 1.0 to 1.25 cm from the top of the pot. Seeds of each of several monocotyledonous and dicotyledonous annual plant species were placed on top of the soil. A sufficient quantity of soil to cover the seeds and level fill the pot was weighed into an open container. A known amount of the test compound was dissolved or suspended in an organic solvent and applied by spraying to this cover soil. The cover soil was thoroughly mixed to distribute the test compound throughout the cover soil, and was then applied as a cover layer over the seeds. Untreated soil was used as a cover layer for control pots. After treatment the plants were placed in a greenhouse where they received 0.64 cm of overhead irrigation. All subsequent watering consisted of a light overhead mist and/or subirrigation as needed for germination and growth. Tables 9 and 10 below relate to warm season plant species which were placed after pre-emergence treatment in a greenhouse with a 30/21° C. day/night temperature regime. Tables 11 and 12 below relates to cool season plant species placed after pre-emergence treatment in a greenhouse or growth chamber with an 18/13° C. day/night temperature regime. Only the compounds of Examples 1, 6, 8, 11, 13 and 15-20 were included in PPI tests.
(§3) Approximately 14 days after planting and treating, the plants were observed and herbicidal efficacy recorded as percent inhibition by comparison with untreated plants.
`CCN(CC)C(=O)n1cnc(S(=O)(=O)C(F)F)n1` [Example 15, 1-(N,N-diethylcarbamoyl)-3-(difluoromethylsulfonyl)-1,2,4-triazole] showed an inhibition at 10 g/ha of 0%.

Same assay, conditions: Datura stramonium; PPI application, 30 g/ha; read-out: Percent inhibition DATST
`CCN(CC)C(=O)n1cnc(S(=O)(=O)C(F)F)n1` [Example 15, 1-(N,N-diethylcarbamoyl)-3-(difluoromethylsulfonyl)-1,2,4-triazole] was tested, and the inhibition at 30 g/ha was 0%.

Same assay, conditions: Datura stramonium; PPI application, 100 g/ha; read-out: Percent inhibition DATST
With `CCN(CC)C(=O)n1cnc(S(=O)(=O)C(F)F)n1` [Example 15, 1-(N,N-diethylcarbamoyl)-3-(difluoromethylsulfonyl)-1,2,4-triazole] the inhibition at 100 g/ha was 0%.

Same assay, conditions: Datura stramonium; PPI application, 300 g/ha; read-out: Percent inhibition DATST
In the case of `CCN(CC)C(=O)n1cnc(S(=O)(=O)C(F)F)n1` [Example 15, 1-(N,N-diethylcarbamoyl)-3-(difluoromethylsulfonyl)-1,2,4-triazole], the inhibition at 300 g/ha is reported as 65%.

Same assay, conditions: Datura stramonium; PPI application, 900 g/ha; read-out: Percent inhibition DATST
`CCN(CC)C(=O)n1cnc(S(=O)(=O)C(F)F)n1` [Example 15, 1-(N,N-diethylcarbamoyl)-3-(difluoromethylsulfonyl)-1,2,4-triazole] gave an inhibition at 900 g/ha of 90%.

Same assay, conditions: PPI application, 10 g/ha
`CCN(CC)C(=O)n1cnc(S(=O)(=O)C(F)(F)C(F)F)n1` [Example 16] was tested, and the “Percent inhibition DATST” value was 0%.

Same assay, conditions: PPI application, 30 g/ha
In the case of `CCN(CC)C(=O)n1cnc(S(=O)(=O)C(F)(F)C(F)F)n1` [Example 16], the “Percent inhibition DATST” value is reported as 0%.

Same assay, conditions: PPI application, 100 g/ha
`CCN(CC)C(=O)n1cnc(S(=O)(=O)C(F)(F)C(F)F)n1` [Example 16] was tested, and the “Percent inhibition DATST” value was 20%.

Same assay, conditions: PPI application, 300 g/ha
For `CCN(CC)C(=O)n1cnc(S(=O)(=O)C(F)(F)C(F)F)n1` [Example 16], the “Percent inhibition DATST” value was 70%.

Same assay, conditions: PPI application, 900 g/ha
In the case of `CCN(CC)C(=O)n1cnc(S(=O)(=O)C(F)(F)C(F)F)n1` [Example 16], the “Percent inhibition DATST” value is reported as 100%.

Same assay, conditions: pre-plant incorporated; GR80 = lowest tested rate with 80% or greater inhibition; approx. 14 days after treating; 30/21° C.
In the case of `CCN(CC)C(=O)n1cnc(S(=O)(=O)C(F)F)n1` [Example 15, 1-(N,N-diethylcarbamoyl)-3-(difluoromethylsulfonyl)-1,2,4-triazole], the “PPI activity (GR80) DATST” value is reported as 300 g/ha.
In the case of `CCN(CC)C(=O)n1cnc(S(=O)(=O)C(F)(F)C(F)F)n1` [Example 16], the “PPI activity (GR80) DATST” value is reported as 100 g/ha.

The molecules below were run on AVEFA (wild oat) (assay: Post-emergence herbicidal activity, cool season). Conditions: abraded plants sprayed at 300, 100, 30 and 10 g/ha; about 14 days after treatment.
Type: in vivo, Avena fatua
Protocol: In another set of tests, the post-emergence activity of compounds of this invention was evaluated on the cool season species listed above. The following procedure was used.
A pre-prepared topsoil mixture (described above) was placed in a pot and compacted to a depth of 1.0 to 1.25 cm from the top of the pot. Seeds of each of several monocotyledonous and dicotyledonous annual plant species were placed on top of the soil. The seeds were covered with a mixture of 50% topsoil and 50% Rediearth™ in sufficient quantity to level-fill the pots. The pots were then placed on a greenhouse bench and subirrigated as needed.
When plants growing from the seeds had emerged and reached a suitable growth stage for post-emergence treatment, typically 9 to 14 days after planting, above-ground parts of the plants were subjected to a pre-treatment involving abrasion to create greater opportunity for foliar uptake of subsequently applied compounds. Abrasion was performed using garnet 200w particles applied with a Sears Craftsman hand-held sandblaster operated at approximately 850 kPa (50 psig) pressure.
A known amount of each test compound dissolved or suspended in an appropriate organic solvent was diluted with a 50:50 mix of acetone and water and applied to the plants by spraying with a standard spray nozzle in a spray volume of […] at a spray pressure of 511 kPa (30 psig). Only the compounds of Examples 1, 8-15 and 17-22 were included in post-emergence tests. Application rates for these compounds were 300, 100, 30 and 10 g/ha. Control plants were abraded but not sprayed.
After treatment the plants were placed in a greenhouse with an 18/13° C. day/night temperature regime and were subsequently watered as needed for growth. Approximately 14 days after treatment, the plants were observed and herbicidal efficacy recorded as percent inhibition by comparison with control plants. GR80 values were assigned for each compound as described above for the pre-emergence tests.
In the case of `CCN(CC)C(=O)n1cnc(S(=O)(=O)C(F)F)n1` [Example 15, 1-(N,N-diethylcarbamoyl)-3-(difluoromethylsulfonyl)-1,2,4-triazole], the “Post-emergence activity GR80, AVEFA” value is reported as “[empty]”.
For `CCN(CC)C(=O)n1cnc(S(=O)(=O)C(F)(F)C(F)(F)SC)n1` [Example 14], the “Post-emergence activity GR80, AVEFA” value was “[empty]”.

The molecules below were run on SINAR (wild mustard) (assay: Pre-emergence herbicidal activity, cool season). Conditions: lowest tested rate with 80% or greater inhibition; rates 300, 100, 30, 10 g/ha; about 14 days.
Type: in vivo, Sinapis arvensis
Outline: as §1
For `CCN(CC)C(=O)n1cnc(S(=O)(=O)C(F)(F)C(F)F)n1` [Example 16], the “Pre-emergence activity GR80, SINAR” value was 100 g/ha.
With `CCN(CC)C(=O)n1cnc(S(=O)(=O)C(F)(F)C(F)(F)SC)n1` [Example 14] the “Pre-emergence activity GR80, SINAR” value was “[empty]”.

The molecules below were run on rice (ORYSA) (assay: Selectivity test, PPI, warm season crop). Conditions: Oryza sativa; PPI application, 10 g/ha; read-out: Percent inhibition ORYSA.
Type: in vivo, Oryza sativa
Protocol: as §2, §3
Additional pre-emergence and PPI tests were conducted by the procedures described above, on warm and cool season weed species in the presence of crop species, to assess herbicidal selectivity. Crop species included in warm season tests were corn (Zea mays, ZEAMX), rice (Oryza sativa, ORYSA) and soybean (Glycine max, GLYMX). Crop species included in cool season tests were wheat (Triticum aestivum, TRZAW), barley (Hordeunm vulgare, HORVX) and oilseed rape (Brassica napus, BRSNS).
Tables 15 and 16 relate to pre-emergence and PPI tests respectively on warm season species. Table 17 relates to pre-emergence tests on cool season species.
`CCN(CC)C(=O)n1cnc(S(=O)(=O)C(F)F)n1` [Example 15, 1-(N,N-diethylcarbamoyl)-3-(difluoromethylsulfonyl)-1,2,4-triazole] was tested, and the inhibition at 10 g/ha was 0%.

Same assay, conditions: Oryza sativa; PPI application, 30 g/ha; read-out: Percent inhibition ORYSA
Work on `CCN(CC)C(=O)n1cnc(S(=O)(=O)C(F)F)n1` [Example 15, 1-(N,N-diethylcarbamoyl)-3-(difluoromethylsulfonyl)-1,2,4-triazole] yielded an inhibition at 30 g/ha of 0%.

Same assay, conditions: Oryza sativa; PPI application, 100 g/ha; read-out: Percent inhibition ORYSA
Molecule `CCN(CC)C(=O)n1cnc(S(=O)(=O)C(F)F)n1` [Example 15, 1-(N,N-diethylcarbamoyl)-3-(difluoromethylsulfonyl)-1,2,4-triazole] has an inhibition at 100 g/ha of 0%.

Same assay, conditions: Oryza sativa; PPI application, 300 g/ha; read-out: Percent inhibition ORYSA
For `CCN(CC)C(=O)n1cnc(S(=O)(=O)C(F)F)n1` [Example 15, 1-(N,N-diethylcarbamoyl)-3-(difluoromethylsulfonyl)-1,2,4-triazole], the inhibition at 300 g/ha was 0%.

Same assay, conditions: Oryza sativa; PPI application, 900 g/ha; read-out: Percent inhibition ORYSA
Work on `CCN(CC)C(=O)n1cnc(S(=O)(=O)C(F)F)n1` [Example 15, 1-(N,N-diethylcarbamoyl)-3-(difluoromethylsulfonyl)-1,2,4-triazole] yielded an inhibition at 900 g/ha of 0%.

Same assay, conditions: PPI application, 10 g/ha
With `CCN(CC)C(=O)n1cnc(S(=O)(=O)C(F)(F)C(F)F)n1` [Example 16] the “Percent inhibition ORYSA” value was 0%.

Same assay, conditions: PPI application, 30 g/ha
`CCN(CC)C(=O)n1cnc(S(=O)(=O)C(F)(F)C(F)F)n1` [Example 16] was tested, and the “Percent inhibition ORYSA” value was 0%.

Same assay, conditions: PPI application, 100 g/ha
`CCN(CC)C(=O)n1cnc(S(=O)(=O)C(F)(F)C(F)F)n1` [Example 16] was tested, and the “Percent inhibition ORYSA” value was 30%.

Same assay, conditions: PPI application, 300 g/ha
For `CCN(CC)C(=O)n1cnc(S(=O)(=O)C(F)(F)C(F)F)n1` [Example 16], the “Percent inhibition ORYSA” value was 90%.

Same assay, conditions: PPI application, 900 g/ha
With `CCN(CC)C(=O)n1cnc(S(=O)(=O)C(F)(F)C(F)F)n1` [Example 16] the “Percent inhibition ORYSA” value was 100%.

What follows are molecules tested on CHEAL (common lambsquarters) (assay: Pre-emergence herbicidal activity, warm season). Conditions: GR80 = lowest tested rate (300, 100, 30, 10 g/ha) with 80% or greater inhibition; approx. 14 days after treating; 30/21° C.
Type: in vivo, Chenopodium album
Outline: as §1
`CCN(CC)C(=O)n1cnc(S(=O)(=O)C(F)(F)C(F)F)n1` [Example 16] was tested, and the “Pre-emergence activity (GR80) CHEAL” value was 300 g/ha.
For `CCN(CC)C(=O)n1cnc(S(=O)(=O)C(F)(F)C(F)(F)SC)n1` [Example 14], the “Pre-emergence activity (GR80) CHEAL” value was 300 g/ha.

What follows are molecules tested on ECHCG (barnyardgrass) (assay: Pre-emergence herbicidal activity, warm season). Conditions: Echinochloa crus-galli; pre-emergence application, 10 g/ha; read-out: Percent inhibition, weed ECHCG.
Type: in vivo, Echinochloa crus-galli
Outline: as §1
For `CCN(CC)C(=O)n1cnc(S(=O)(=O)C(F)F)n1` [Example 15, 1-(N,N-diethylcarbamoyl)-3-(difluoromethylsulfonyl)-1,2,4-triazole], the inhibition at 10 g/ha was 0%.

Same assay, conditions: Echinochloa crus-galli; pre-emergence application, 30 g/ha; read-out: Percent inhibition, weed ECHCG
Work on `CCN(CC)C(=O)n1cnc(S(=O)(=O)C(F)F)n1` [Example 15, 1-(N,N-diethylcarbamoyl)-3-(difluoromethylsulfonyl)-1,2,4-triazole] yielded an inhibition at 30 g/ha of 0%.

Same assay, conditions: Echinochloa crus-galli; pre-emergence application, 100 g/ha; read-out: Percent inhibition, weed ECHCG
`CCN(CC)C(=O)n1cnc(S(=O)(=O)C(F)F)n1` [Example 15, 1-(N,N-diethylcarbamoyl)-3-(difluoromethylsulfonyl)-1,2,4-triazole] showed an inhibition at 100 g/ha of 20%.

Same assay, conditions: Echinochloa crus-galli; pre-emergence application, 300 g/ha; read-out: Percent inhibition, weed ECHCG
Molecule `CCN(CC)C(=O)n1cnc(S(=O)(=O)C(F)F)n1` [Example 15, 1-(N,N-diethylcarbamoyl)-3-(difluoromethylsulfonyl)-1,2,4-triazole] has an inhibition at 300 g/ha of 60%.

Same assay, conditions: Echinochloa crus-galli; pre-emergence application, 900 g/ha; read-out: Percent inhibition, weed ECHCG
In the case of `CCN(CC)C(=O)n1cnc(S(=O)(=O)C(F)F)n1` [Example 15, 1-(N,N-diethylcarbamoyl)-3-(difluoromethylsulfonyl)-1,2,4-triazole], the inhibition at 900 g/ha is reported as 70%.

Same assay, conditions: GR80 = lowest tested rate (300, 100, 30, 10 g/ha) with 80% or greater inhibition; approx. 14 days after treating; 30/21° C.
`CCN(CC)C(=O)n1cnc(S(=O)(=O)C(F)F)n1` [Example 15, 1-(N,N-diethylcarbamoyl)-3-(difluoromethylsulfonyl)-1,2,4-triazole] was tested, and the “Pre-emergence activity (GR80) ECHCG” value was 100 g/ha.
With `CCN(CC)C(=O)n1cnc(S(=O)(=O)C(F)(F)C(F)F)n1` [Example 16] the “Pre-emergence activity (GR80) ECHCG” value was 100 g/ha.
For `CCN(CC)C(=O)n1cnc(S(=O)(=O)C(F)(F)C(F)(F)SC)n1` [Example 14], the “Pre-emergence activity (GR80) ECHCG” value was 300 g/ha.
